In data set [1] the test system is Enterovirus D68 (Fermon strain). Put plainly: CPE inhibition assay. The format is cell-based. The settings on record: for EC50: Enterovirus D, RD, read-out: EC50, 50% effective (virus-inhibitory) concentration.
In data set [2] the test system is Enterovirus 71 (Tainan/4643/98 strain). Kind of data set: CPE inhibition assay. The format is cell-based.
The subject of data set [3] is EV-D68 (US/KY/14-18953 strain). Kind of data set: Virus yield reduction. The class given is cell-based, Enterovirus D68.
Data set [4] concerns EV-D68/US/KY/14-18953. Put plainly: CPE inhibition. The settings on record: for SI, selectivity index (CC50 / EC50): A549 cells; for EC50: Enterovirus D, EVD68, A549, read-out: EC50, 50% effective concentration. The class given is cell-based, Enterovirus D68.
The subject of data set [5] is EV-D68/US/KY/14-18953. Kind of data set: CPE inhibition. The format is cell-based, Enterovirus D68. Particulars: for EC50: Enterovirus D, EVD68, HeLa Ohio1, read-out: EC50, 50% effective concentration; for SI, selectivity index (CC50 / EC50): HeLa-Ohio-1 cells.
The subject of data set [6] is RD human rhabdomyosarcoma cells.
Data set [7] deals with Rhinovirus 87 (F02-3607 Corn strain). Kind of data set: CPE inhibition assay. The class given is cell-based.
Data set [8] can be described thus: in vitro. Particulars: human.
The nature of data set [9]: in vitro. Particulars: human, uninfected A549 lung carcinoma cells, stationary monolayers.
For the next data set, the system named is EV-71. Particulars: ref Zhang et al., 2013; cited from earlier work.
The mark [10] stands for this setting: Enterovirus D68/Fermon, RD cells.
Setting [11] is: EV-D68 US/KY/14-18953, RD cells.

Read-outs that look alike come from different tables or passages of the source. Some results are limits rather than exact numbers.

As for `CCOC(=O)c1ccc(OCCC2CCN(c3ccc(C)nn3)CC2)cc1` [Pirodavir, pirodavir], the “SI, selectivity index (CC50 / EC50)” value in data set [1] (setting [10]) was determined as 3; in [2] (Enterovirus 71, RD cells), 24; in the data set with EV-D68/US/KY/14-18953 [4] it was 13; in the data set with EV-D68/US/KY/14-18953 [5], 5.3. Also, the EC50 in [1] was found to be 7 ± 3 µM; with EV-D68/US/KY/14-18953 [4] it was 11 ± 7.2 µM; with EV-D68/US/KY/14-18953 [5], 6.1 ± 2.8 µM. Further, the “Overall activity against EV-D68 virus (in words)” value in data set [3] (CPE inhibited at much lower concentration than virus yield) is recorded as “poorly effective”. Also, in data set [3] (setting [11]), the “SI, selectivity index (CC50 [from Table 1] / EC90)” value was below 1. Besides, in data set [6], the CC50 stood at 32 ± 18 µM.
As to `Nc1cc2nc[nH]c2c(=O)[nH]1` [3-Deazaguanine, 3-deazaguanine], the “SI, selectivity index (CC50 / EC50)” value in data set [1] worked out at 54; in data set [7] it was 45; in [2], 5. Moreover, the EC50 in data set [1] amounted to 6.7 ± 1.6 µM. In [3], the “SI, selectivity index (CC50 [from Table 1] / EC90)” value amounted to 45. In addition, in “in vitro [8]”, the CC50 turned out to be 360 ± 227 µM.
For `CC(C)S(=O)(=O)n1c(N)nc2ccc(/C(=N/O)c3ccccc3)cc21` [Enviroxime, enviroxime], the “SI, selectivity index (CC50 / EC50)” value came to 352 in [1] (setting [10]); 500 in [7] (Rhinovirus 87, RD cells); 92 in [2] (Enterovirus 71, RD cells); 89 in the data set with EV-D68/US/KY/14-18953 [4]; 45 with EV-D68/US/KY/14-18953 [5]. The EC50 in [1] stood at 0.27 ± 0.19 µM; in the data set with EV-D68/US/KY/14-18953 [4], 0.77 ± 1.1 µM; with EV-D68/US/KY/14-18953 [5], 1.7 ± 0.72 µM. Moreover, in data set [3] (setting [11]), the “SI, selectivity index (CC50 [from Table 1] / EC90)” value came out at 156. Also, the CC50 was 66 ± 28 µM in “in vitro [8]” (uninfected RD rhabdomyosarcoma cells, stationary monolayers) and 68 ± 13 µM in “in vitro [9]”.
As to `Cc1cc(CCCOc2c(C)cc(-c3noc(C(F)(F)F)n3)cc2C)on1` [Pleconaril, pleconaril], in data set [1], the “SI, selectivity index (CC50 / EC50)” value worked out at 87 and the EC50 was found to be 0.13 ± 0.09 µM. Moreover, the “SI, selectivity index (CC50 / EC50)” value in data set [7] is 7. Also, in [3], the “SI, selectivity index (CC50 [from Table 1] / EC90)” value is 54. In addition, in “in vitro [8]”, the CC50 was 11.3 ± 6.3 µM.
With `CCOC(=O)/C=C/[C@H](C[C@@H]1CCNC1=O)NC(=O)[C@@H](CC(=O)[C@@H](NC(=O)c1cc(C)on1)C(C)C)Cc1ccc(F)cc1` [Rupintrivir, rupintrivir], the “SI, selectivity index (CC50 / EC50)” value in data set [1] is reported as 60910; in data set [7], 25280; in data set [2] it was 7450. Further, the EC50 in data set [1] came to 0.0022 µM. In addition, in data set [3], the “SI, selectivity index (CC50 [from Table 1] / EC90)” value was 33,500. For the same compound, the “Treatment of EV-71 infection in suckling mice (mortality and clinical scores)” value in the data set on EV-71 was “effective”. Also, in “in vitro [8]”, the CC50 was 134 ± 21 µM.
On to `NC(=O)c1ncn([C@@H]2O[C@H](CO)[C@@H](O)[C@H]2O)n1` [Ribavirin, ribavirin], for which the EC50 in data set [1] was 147 ± 74 µM. Moreover, the CC50 in the data set “in vitro [8]” was 1100 ± 450 µM.
